Measured values as given in patent US20250084453A1, “SYSTEMS, COMPOSITIONS AND METHODS FOR IDENTIFYING E3 LIGASE SUBSTRATES BY UBIQUITIN BIOTINYLATION” (The Broad Institute, Inc., priority 2022, published 2025).

Tests used:
GSPT1 [1] = assay: GSPT1 degradation by Western blot in HEK293T cells and CRBN-/- derivatives; assay type: cell-based, human
Procedure: (§1) However, instead of assessing transiently-expressed V5-tagged IKZF1, an endogenous neo-substrate of CRBN, namely, GSPT1, was assessed. […] Following incubation with the components and added agents, the cells were lysed, and streptavidin-coated beads were used to capture from the cell lysate biotinylated, ubiquitinated proteins, e.g., the endogenous GSPT1 substrate. The biotinylated proteins eluted from the beads were subjected to Western blot analyses.

GSPT1 [2] = assay: Streptavidin pulldown and Western blot of biotinylated ubiquitinated GSPT1 in 293T CRBN-/- CRBN-BirA cells; assay type: cell-based, human
Procedure: as §1
The cells were either treated or untreated with carfilzomib (0.4 μM) for 1 hour and were either treated or untreated with the CRBN-IMiD modifying agent CC-885 (1 μM) for another hour. […] As discussed above in Example 1, the GSPT1 substrate of BirA-tagged CRBN is expressed endogenously in 293T cells.
The preparation of cellular lysate was as described above for Cell Lysis, except that the RIPA buffer was supplemented with COMPLETE™ EDTA-free protease inhibitor cocktail (Roche; 04693159001; 1 tablet per 10 ml of buffer), benzonase (Millipore; E1014; 1 μl per 10 ml of buffer), 1.5 mM MgCl2, 1 mM EGTA, and 10 mM NEM (N-ethylmaleimide). For each sample, 1 ml of 3 mg/ml lysate was rotated overnight at 4° C. with 50 μl of resuspended streptavidin Sepharose beads (CYTIVA™; 17511301), which were pre-washed with RIPA lysis buffer 3 times. For all steps that required pelleting of beads, centrifugation was performed at 400×g for 1 minute. On the next day, streptavidin beads were pelleted, and the supernatant (a.k.a. flow-through) was either saved for analysis by Western blotting or was discarded. Streptavidin beads were then washed two times with 1 ml of 2% SDS wash buffer (2% SDS, 25 mM Tris-HCl, pH 7.5), and three times with 0.5-1 ml of 2M urea wash buffer (2M urea, 50 mM Tris-HCl, pH 8). Between each wash, the beads were rotated at room temperature for at least 5 minutes. During the last wash, the beads and the washing buffer were transferred to a new microfuge tube. […] For mass spectrometry-based analysis, the procedures described in On-bead Digestion below were used.
On the next day, the cells were transfected using pRK5-Avi-HA-ubiquitin or pRK5-A3-HA-ubiquitin in serum-free DMEM.

Structure (SMILES): Cc1ccc(NC(=O)NCc2ccc3c(c2)CN(C2CCC(=O)NC2=O)C3=O)cc1Cl (stereo not drawn) [CC-885]
- GSPT1 degradation (Western blot, FIG. 5A) (GSPT1 [1]; 293T CRBN-/- CRBN-BirA cells with Avi-HA-Ub, 1 μM, 2 hours): degraded
- GSPT1 degradation (Western blot) (GSPT1 [1]; 293T CRBN-/- cells expressing BirA-CRBN or CRBN-BirA, 1 μM, 4 hours): degraded
- GSPT1 degradation (Western blot) (GSPT1 [1]; 293T CRBN-/- cells, 1 μM, 4 hours): not degraded
- GSPT1 degradation (Western blot) (GSPT1 [1]; HEK293T cells, 10 nM, 100 nM, 1 μM or 10 μM for 3.5 hours): degraded in cells in a dose-dependent matter
- Specific signal, normalized GSPT1/biotin ratios (GSPT1 [2]; A3-tag compared to Avi-tag, FIG. 6C): increase in specific signal
- Sensitivity in detecting CC-885-induced ubiquitination of GSPT1 by CRBN (GSPT1 [2]; A3-tag, FIG. 6C): 36.39
- Ubiquitinated GSPT1 captured by streptavidin beads compared with DMSO (GSPT1 [2]; Avi-HA-Ub, 1 μM, 2 hours, Western blot quantification (FIG. 5C)): 6-12 fold
- Mono- and poly-ubiquitinated GSPT1 captured by streptavidin beads (GSPT1 [2]; Avi-HA-Ub, FIG. 5C): only observed in conditions where CC-885 was present
- Sensitivity in detecting CC-885-induced ubiquitination of GSPT1 by CRBN (GSPT1 [2]; Avi-tag, FIG. 6C): 15.46
